Laboratory results as given in patent publication US20220411879A1, “COMPOSITIONS AND METHODS FOR REGULATING EGFR AMPLIFICATION IN CANCER CELLS FOR IMPROVING EFFICACY OF EGFR-TARGETED ANTI-CANCER AGENTS” (Institute for Cancer Research d/b/a The Research Institute …, priority 2019, published 2022).

Tests used:
Type in all cases: cell-based, human
KDM4A = test: Immunoblot of KDM4A protein levels in RPE cells; conditions: EGF 50 ng/ml, 24 hours
Description: Cells were trypsinized and washed two times with PBS before resuspending in RIPA lysis buffer [50 mM Tris pH 7.4, 150 mM NaCl, 0.25% Sodium Deoxycholate, 1% NP40, 1 mM EDTA, 10% Glycerol] freshly supplemented with protease inhibitor and PhosSTOP phosphatase inhibitor cocktails (Roche). Cells were lysed on ice for 15 min and stored at −80° C. until further processing. Lysates were sonicated for 15 min (30 sec ON and 30 sec OFF cycle) at 70% amplitude in QSonica Q700 sonicator (Qsonica) followed by centrifugation at 12,000 rpm for 15 min. Cell lysate was transferred to a fresh tube and protein estimations were performed with Pierce BCA reagent (Thermo Scientific). Equal amounts of proteins were separated by SDS gel electrophoresis and transferred on nitrocellulose membrane (BioTrace NT, Pall Life Sciences) for at least 3 hr at a constant current. The membranes were blocked for at least 1 hr in 5% BSA-PBST (1×PBS with 0.5% Tween-20) or 5% milk-PBST and probed over night with specific antibodies as follows at the following dilutions: anti-GFP (Neuro mAb) (1:100); anti-β-Actin (1:10,000); anti-KDM4A (Neuro mAb) (1:100); anti-Flag (Sigma Aldrich) (1:500); anti-KDMSA (abcam) (1:500); anti-HALO (Promega) (1:1000); anti-Carbonic Anhydrase IX (Abcam) (1:1000). […]

RPE cells [1] = test: Cell proliferation assay with EGF stimulation in RPE cells
Description: Control, KDM4A overexpression or wild type parental RPE cells were plated at a density of 5×10^3 per well in a 6 well tissue culture plate. Each condition was plated in triplicate for each independent experiment. Cells were allowed to adhere for 16 hours before fresh complete media was added containing a final concentration of 50 ng/ml human recombinant EGF (Abcam). For control and KDM4A overexpression RPE cells, cells were harvested after 48 hours of EGF treatment and cell number calculated using a haemocytometer. For combinatorial drug experiments using parental RPE cells, EGF was added for 24 hours, following a 24 hour drug treatment with either KDM5i (1 μM) or EZH2i (3 μM).
Parental RPE cells were plated in 24 well tissue culture plates, in triplicate at a density of 5×10^3. Cells were allowed to adhere for approximately 16 hours before media was supplemented with EZH2 inhibitor (C24) at a final concentration of 3 μM. After an initial 24 hour treatment, human recombinant EGF was supplemented to each well at a final concentration of 50 ng/ml. After 48 hours of EGF treatment, cells were harvested and counted using a haemocytometer.

RPE cells [2] = test: DNA FISH for EGFR DNA copy number in RPE cells
Description: The FISH protocol was performed as described previously in Black et al. (2013). Briefly, cell suspensions were fixed in ice-cold methanol:glacial acetic acid (3:1) solution for a minimum of four hours, before being spun onto 8 Chamber Polystyrene vessel tissue culture treated glass slides (Falcon, Fisher Scientific), using a centrifuge at 900 rpm. The slides were air-dried and incubated in 2×SSC buffer for 2 min, followed by serial ethanol dilution (70%, 85% and 100%) incubations for 2 min each, for a total of 6 min. Air-dried slides were hybridized with probes that were diluted in appropriate buffer overnight at 37° C., following a 4 minute incubation on a heat block at 78° C. The slides were washed the next day for 3 to 4 mins in appropriate wash buffers at 69° C. with 0.4×SSC for Cytocell probes or commercially available Agilent wash buffer 1 followed by washing in 2×SSC with 0.05% Tween-20 (Cytocell probes) or commercially available Agilent wash buffer 2 (Agilent probes). The slides were incubated in 1 mg/mL DAPI solution made in 1% BSA-PBS, followed by a final 1×PBS wash. After the wash, the slides were mounted with ProLong Gold antifade reagent (Invitrogen).
FISH images were acquired using an Olympus IX81 or Olympus IX83 spinning disk microscope at 40× magnification and analyzed using Slidebook 6.0 softwares. A minimum of 25 z-planes with 0.5 um step size was acquired for each field. Copy number gains for EGFR, 7 centromere (7C), 7p telomere (7p22.3), IKZF1 (7p12.2) and 8 centromere (8C) were scored in RPE cells as three or more foci. A minimum of 100 nuclei are scored for each independent experiment.
For hypoxia, EGF and KDM5i combinatorial experiments, RPE cells were pre-treated with 1 nM of KDM4 inhibitor exactly 24 hours prior to hypoxic exposure or EGF treatment. Immediately before transferring cells to hypoxia, or before drug or growth factor treatment, KDM4 inhibitor was supplemented to cells again at a concentration of 1 nM (double spike). Cells were then cultured in the respective conditions for 24 hours prior to harvesting for RNA, protein, cell cycle and DNA FISH analysis.
RPE cells were treated with KDM5 inhibitor (C70) at a final concentration of 1 μM for a total treatment time of 48 hours. […]

EGFR transcripts = test: qPCR of EGFR transcripts in RPE cells; conditions: 50 ng/ml EGF, 24 hours
Description: Cells were washed and collected by trypsinization, followed by washing in PBS two times. Cell pellet was resuspended in Qiazol reagent (QIAGEN) and stored at −80° C. before further processing. Total RNA was extracted using miRNAeasy Mini Kit (QIAGEN) with an on-column DNase digestion according to the manufacturer's instructions. RNA was quantified using NanoDrop 2000 (Thermo Scientific). Single strand cDNA was prepared using Super Script IV first strand synthesis kit (Invitrogen) using random hexamers. Expression levels were analyzed using FastStart Universal SYBR Green Master (ROX) (Roche) according to the manufacturer's instructions on a LightCycler 480 PCR machine (Roche). Samples were normalized to β-actin.

RPE cells [3] = test: Scratch assay (cell migration) in RPE cells; conditions: KDM4A overexpressing RPE cells vs control, 50 ng/ml EGF, 24 hours
Description: Control or stable KDM4A overexpression RPE cells were plated in 6 well tissue culture plates at a density of 2×10^5. Cells were allowed to adhere to plates for 24 hours. After 24 hours in culture, a p200 pipette tip was used to introduce a scratch wound in the centre of the well from the 12 o'clock to 6 o'clock position. Following the induction of the scratch wound, media was removed from each well and 1 ml of DMEM was used to rinse the wells, removing any cellular debris. After this wash, 3 ml of DMEM supplemented with vehicle or human recombinant EGF (Abcam) to a final concentration of 50 ng/ml, was added to each well. Cells were imaged at 0 hrs, 12 hrs and 24 hrs, using the EVOS imaging platform at 4× magnification. Scratch wound measurements were performed using the EVOS software with a minimum of 5 measurements taken at various locations, per scratch wound. All measurements were averaged. Each condition was performed in triplicate for each independent experiment.

RPE cells [4] = test: Trypan blue exclusion assay of EGFR inhibitor sensitivity in RPE cells; conditions: KDM5i (1 μM) and Gefitinib (2.5 μM), 72 hours
Description: Control or stable KDM4A overexpression RPE cells were plated in 24 well tissue culture plates at a density of 5×10^3. […] Cells were stained with trypan blue solution (Sigma Aldrich) to assess cell viability and counted using a haemocytometer. Each condition was plated in triplicate wells and each well was counted in duplicate. An average was taken of all triplicates and used as a representative total.
Control or stable KDM4A overexpression RPE cells were plated in 24 well tissue culture plates at a density of 8×10^3. […] Cells were stained with trypan blue solution (Sigma Aldrich) to assess cell viability and counted using a hemocytometer. Each condition was plated in triplicate wells and each well was counted in duplicate. An average was taken of all triplicates and used as a representative total.
Parental RPE cells are plated in 24 well tissue culture plates, in triplicate at a density of 5×10^3. […] Cells are cultured for a total of 72 hours under drug treatment conditions before being harvested, stained with trypan blue and counted using a haemocytometer.

Compound: EGF: human recombinant EGF (Abcam), the preferred ligand of EGFR
- KDM4A protein levels (KDM4A): does not impact KDM4A levels
- cell proliferation (RPE cells [1]; KDM4A overexpressing RPE cells vs control, 50 ng/ml EGF, 48 hours): proliferate faster
- EGFR DNA copy number, EGF in KDM4A overexpressing cells (RPE cells [2]; RPE cells stably overexpressing KDM4A, 50 ng/ml EGF, 24 hours): additive increases in EGFR DNA copy number
- EGFR copy number gains (RPE cells [2]; RPE cells, 50 ng/ml EGF, 24 hours): significant copy number gains of the EGFR locus
- EGFR DNA copy number, EGF combined with hypoxia (RPE cells [2]; RPE cells, hypoxia 24 hours then 50 ng/ml EGF under hypoxia 24 hours): modest but additive increase in EGFR DNA copy number
- EGFR transcripts (qPCR) (EGFR transcripts): increased EGFR transcripts
- cell migration (scratch assay) (RPE cells [3]): migrate faster

Compound: CCOC(=O)c1ccnc(CNCC(=O)N(CC)CCN(C)C)c1 [KDM5i, reference compound]
- cell proliferation in response to EGF (RPE cells [1]; RPE cells pre-treated with KDM5i (1 μM) 24 hours, then 50 ng/ml EGF 24 hours, compared to KDM5i alone): increased cell proliferation with supplemented EGF
- percentage of cells (trypan blue exclusion) on co-treatment with Gefitinib (RPE cells [4]): reduced the percentage of cells relative to controls and single agent treatment
- EGFR copy gains after drug removal (washout) (RPE cells [2]; RPE cells, KDM5i 1 μM, 24 hrs after removal): returned to baseline
- EGFR copy gains (RPE cells [2]; RPE cells, KDM5i (C70) 1 μM): promoted EGFR copy gains
